Source: US12643867B2, “Compositions and uses thereof” (University of Virginia Patent Foundation, priority 2017, dated 2026)

Key:
[1] = tested on: A549 cells; assay: Cell Counts (Trypan Blue); assay type: cell-based; details: 48 hrs; ritanserin 10 μM
Method: (§1) Cell Counts. Tumor cells were plated in 60 mm plates at a density of 100.000 cells/mL (A549. H1650) or 200,000 cells/mL (H82) and a volume of 3.5 mL/plate. Cells were treated with inhibitors at the indicated concentrations (final DMSO concentration of 0.5%) for 48 hrs at 37° C. under 5% CO2. After incubation, adherent cells were washed and detached with trypsin and all cells were collected and concentrated by spinning at 400×g for 3 min followed by aspiration of media. Cells were resuspended in […] Trypan Blue and 10 μL of this solution counted via a hemocytometer. Dead cells were excluded from all counts. Data were normalized to DMSO-treated wells and significance values determined with one-way ANOVA.

[2] = tested on: H1650 cells; assay: Cell Counts (Trypan Blue); assay type: cell-based; details: 48 hrs; ritanserin 10 μM
Method: as §1

[3] = tested on: H82 cells; assay: Cell Counts (Trypan Blue); assay type: cell-based; details: 48 hrs; ritanserin 10 μM
Method: as §1

[4] = tested on: A549 cells; assay: CaspaseGlo 3/7 assay; assay type: cell-based; details: 24 hours
Method: (§2) Caspase Glo Assays. Assays were performed as directed by the manufacturer (Promega). Briefly, tumor cells were plated in black tissue-culture treated transparent-bottom 96 well plates at a density of 200,000 cells/mL (A549, H1650) or 400,000 cells/mL (H82) in a volume of 50 μL/well. Cells were treated with inhibitors at the indicated concentrations (final DMSO concentration of 0.5%) for 24 hrs at 37° C. under 5% CO2. Afterwards, 50 μL of the prepared CaspaseGlo reagent was added to each well. The reaction was allowed to proceed at 37° C. under 5% CO2 for 1 hr, at which point the cells were shaken in an orbital shaker at 500 rpm for 60 s and then luminescence was read for each well. Data were normalized to DMSO-treated wells and significance values determined with one-way ANOVA.

[5] = tested on: H1650 cells; assay: CaspaseGlo 3/7 assay; assay type: cell-based; details: 24 hours
Method: as §2

[6] = tested on: H82 cells; assay: CaspaseGlo 3/7 assay; assay type: cell-based; details: 24 hours
Method: as §2

[7] = target: T1, FER (Homo sapiens, UniProt P16591); assay: ATP acyl phosphate chemical proteomics in lung cancer cell proteomes; assay type: binding; details: 100 μM; A549 and H82 proteomes
T1 construct: measure selectivity of compounds against native kinases detected in lung cancer proteomes; endogenous in cells; host or cells: A549 and H82 lung cancer cell proteomes
Method: (§3) LC-MS analysis of SILAC samples using ATP acyl phosphates. Quantitative chemoproteomics was performed as previously described (Franks et al., 2017; McCloud et al., 2018).
(§4) Computational Methods. Data for A549 and H82 cell lines were searched with IP2 and manually validated using the methods previously described (Franks et al., 2017). Data for Desthiobiotin-tagged ATP acyl-phosphate probes and ATP competitive peptides were compared and clustered. Ritanserin and ketanserin inhibition profiles were compared using SILAC ratios and normalized to DMSO.
(§5) Based on previous chemical proteomics (Franks, 2017), it was hypothesized that ritanserin is functioning as a kinase inhibitor to mediate cytotoxicity in the lung cancer cell models. […] For these studies, NSCLC and SCLC cells were cultured in isotopically light and heavy amino acids to enable quantitative chemical proteomics (Chang. 2015) by stable isotope labeling with amino acids in cell culture (SILAC, FIG. 17A). […] After probe labeling, light and heavy proteomes were combined, digested with trypsin protease, and desthiobiotin-modified peptides enriched by avidin affinity chromatography and analyzed by LC-MS/MS to identify and quantify isotopically tagged active-site peptides from native kinases as previously described(Franks, 2017) (FIG. 17A).

[8] = target: T2, TLK2 (Homo sapiens, UniProt Q86UE8); assay: as above; assay type: binding; details: 100 μM; A549 and H82 proteomes
T2 construct: measure selectivity of compounds against native kinases detected in lung cancer proteomes; endogenous in cells; host or cells: A549 and H82 lung cancer cell proteomes
Method: as §3, §4, §5

[9] = target: T3, CRAF (Homo sapiens, UniProt P04049); assay: as above; assay type: binding; details: for CRAF ATP acyl-phosphate labeling response (words, FIG. 20): H82 and HEK293T lysates, 100 μM Rit, 1 mM RF001
T3 construct: measure selectivity of compounds against native kinases detected in lung cancer proteomes; endogenous in cells; host or cells: H82 small cell lung cancer (and HEK293T) cell lysates; CRAF not detected in A549
Method: as §3, §4, §5
To further confirm that ritanserin is a CRAF inhibitor, a targeted parallel reaction monitoring method (PRM) was developed to evaluate compound activity against CRAF and other members of the RAF family (ARAF and BRAF). Targeted PRM was needed because of the low abundance of CRAF compared with ARAF and BRAF). […] Ritanserin activity was also measured against RAF kinases in A549 proteomes using the targeted LC-MS method. […] The data further support previous findings that this RAF member is enriched in SCLC cells (REF).

[10] = target: T4, recombinant RAF1 (Homo sapiens, UniProt P04049); assay: RAF1 (CRAF) substrate assay; assay type: biochemical; details: RAF1-HEK293T proteomes
T4 construct: expressed in transfected cells; host or cells: HEK293T
Method: Given the potential for indirect inhibitory effects in the competition studies in lysates, ritanserin activity was tested in a CRAF substrate assay. Ritanserin inhibition was measured against recombinant RAF1 using commercial substrate assays. […] RAF1 was overexpressed in HEK293T cells and measured recombinant RAF1 activity by comparing with non-transfected HEK293T (i.e. mock) proteomes.

T3 sequence (P04049 whole entry): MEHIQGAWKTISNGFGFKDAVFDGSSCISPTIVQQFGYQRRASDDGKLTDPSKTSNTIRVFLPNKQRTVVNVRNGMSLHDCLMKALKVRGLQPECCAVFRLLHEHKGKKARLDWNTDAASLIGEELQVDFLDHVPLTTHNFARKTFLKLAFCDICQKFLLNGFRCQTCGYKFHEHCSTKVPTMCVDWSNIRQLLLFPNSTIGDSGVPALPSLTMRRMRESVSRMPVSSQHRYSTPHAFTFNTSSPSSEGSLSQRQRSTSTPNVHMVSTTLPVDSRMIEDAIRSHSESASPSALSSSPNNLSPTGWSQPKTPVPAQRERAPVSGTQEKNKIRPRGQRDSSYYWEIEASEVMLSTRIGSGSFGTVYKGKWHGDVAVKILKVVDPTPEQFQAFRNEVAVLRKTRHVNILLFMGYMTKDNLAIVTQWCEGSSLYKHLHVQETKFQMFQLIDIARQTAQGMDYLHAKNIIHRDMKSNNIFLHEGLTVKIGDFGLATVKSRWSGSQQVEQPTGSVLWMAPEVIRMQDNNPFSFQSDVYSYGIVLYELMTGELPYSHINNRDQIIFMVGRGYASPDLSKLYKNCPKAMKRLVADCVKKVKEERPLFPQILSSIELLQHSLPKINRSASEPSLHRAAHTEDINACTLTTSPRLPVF
T4 sequence (P04049 whole entry): as above
T2 sequence (Q86UE8 whole entry): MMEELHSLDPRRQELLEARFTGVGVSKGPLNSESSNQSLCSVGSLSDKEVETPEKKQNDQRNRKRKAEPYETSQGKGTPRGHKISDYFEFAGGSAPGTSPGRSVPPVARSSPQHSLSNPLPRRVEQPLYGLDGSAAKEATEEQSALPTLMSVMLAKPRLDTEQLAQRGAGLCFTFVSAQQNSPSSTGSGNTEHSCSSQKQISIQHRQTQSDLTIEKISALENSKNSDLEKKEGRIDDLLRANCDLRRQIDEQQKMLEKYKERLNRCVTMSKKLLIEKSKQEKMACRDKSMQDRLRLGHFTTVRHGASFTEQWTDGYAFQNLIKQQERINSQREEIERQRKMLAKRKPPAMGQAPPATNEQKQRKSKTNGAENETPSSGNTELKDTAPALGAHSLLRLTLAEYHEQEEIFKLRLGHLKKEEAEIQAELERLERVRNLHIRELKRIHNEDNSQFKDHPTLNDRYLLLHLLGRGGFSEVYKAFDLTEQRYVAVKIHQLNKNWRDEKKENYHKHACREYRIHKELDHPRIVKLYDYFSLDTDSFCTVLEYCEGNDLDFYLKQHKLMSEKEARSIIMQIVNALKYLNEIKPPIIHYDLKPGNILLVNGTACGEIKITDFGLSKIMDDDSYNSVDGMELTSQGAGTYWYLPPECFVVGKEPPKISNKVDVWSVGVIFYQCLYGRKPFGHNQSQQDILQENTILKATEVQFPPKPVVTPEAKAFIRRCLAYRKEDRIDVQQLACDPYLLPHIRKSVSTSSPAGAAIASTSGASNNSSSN
T1 sequence (P16591 whole entry): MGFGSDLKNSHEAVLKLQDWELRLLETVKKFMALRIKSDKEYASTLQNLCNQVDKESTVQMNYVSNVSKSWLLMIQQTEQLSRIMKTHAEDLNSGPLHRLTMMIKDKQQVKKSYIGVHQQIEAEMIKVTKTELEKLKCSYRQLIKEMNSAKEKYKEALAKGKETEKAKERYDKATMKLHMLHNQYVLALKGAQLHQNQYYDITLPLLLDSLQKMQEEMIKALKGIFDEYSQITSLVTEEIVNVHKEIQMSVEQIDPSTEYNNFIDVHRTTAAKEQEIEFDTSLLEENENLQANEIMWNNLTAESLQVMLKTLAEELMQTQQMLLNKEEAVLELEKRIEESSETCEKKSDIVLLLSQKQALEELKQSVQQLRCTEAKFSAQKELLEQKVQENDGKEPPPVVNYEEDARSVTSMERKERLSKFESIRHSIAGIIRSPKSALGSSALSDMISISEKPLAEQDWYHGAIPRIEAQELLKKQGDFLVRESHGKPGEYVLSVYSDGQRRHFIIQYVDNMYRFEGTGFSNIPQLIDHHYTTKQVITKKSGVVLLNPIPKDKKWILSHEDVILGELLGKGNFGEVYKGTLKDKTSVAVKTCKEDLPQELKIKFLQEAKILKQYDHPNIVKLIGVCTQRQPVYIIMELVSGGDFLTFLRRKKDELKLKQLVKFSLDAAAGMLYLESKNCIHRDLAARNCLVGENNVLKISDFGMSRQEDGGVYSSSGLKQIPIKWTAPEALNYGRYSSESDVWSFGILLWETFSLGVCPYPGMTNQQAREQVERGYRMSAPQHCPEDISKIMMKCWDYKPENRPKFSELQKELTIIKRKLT

SMILES | cell killing (live cell counts) [1] | cell killing (live cell counts) [2] | cell killing (live cell counts) [3] | caspase 3/7 activity [4] | caspase 3/7 activity [5] | caspase 3/7 activity [6] | kinase target by SILAC ratio criterion [7] | kinase target by SILAC ratio criterion [8] | kinase target by SILAC ratio criterion ([9]; 100 μM, A549 and H82 proteomes) | CRAF ATP acyl-phosphate labeling response (words, FIG. 20) [9] | activity by targeted PRM ([9]; H82 proteomes) | blockade of recombinant RAF1 activity [10]
Cc1nc2sccn2c(=O)c1CCN1CCC(=C(c2ccc(F)cc2)c2ccc(F)cc2)CC1 [Ritanserin] | ~70% | ~70% | ~70% | lower degree of activation | comparable activation of caspase 3/7 compared with staurosporine | comparable activation of caspase 3/7 compared with staurosporine | most potent targets | most potent targets | most potent targets | inactivates CRAF | potent activity against CRAF | concentrations dependent blockade of recombinant RAF1 activity
Fc1ccc(C(=C2CCNCC2)c2ccc(F)cc2)cc1 [RF001, 4-(Bis(4-fluorophenyl)methylene) piperidine] | – | – | – | – | – | – | – | – | – | inactivates CRAF | – | –
O=C(c1ccc(F)cc1)C1CCN(CCn2c(=O)[nH]c3ccccc3c2=O)CC1 [Ketanserin] | not ketanserin | not ketanserin | not ketanserin | did not induce these effects | did not induce these effects | did not induce these effects | – | – | – | – | – | not ketanserin
